Values of other authors, collected in US20110002851A1, “Cationic Colloidal Carriers for Delivery of Active Agents to the Blood-Brain Barrier in the Course of Neuroinflammatory Diseases” (MediGene AG, priority 2006, published 2011).

How the values were obtained:
T cell = details: micellar paclitaxel formulation
MMP-9 = details: LPS-stimulated astrocytes and microglia

| Compound | T cell proliferation (T cell) | expression of MMP-9 (MMP-9) |
| --- | --- | --- |
| CC(=O)O[C@H]1C(=O)[C@@]2(C)[C@H]([C@H](OC(=O)c3ccccc3)[C@]3(O)C[C@H](OC(=O)[C@H](O)[C@@H](NC(=O)c4ccccc4)c4ccccc4)C(C)=C1C3(C)C)[C@]1(OC(C)=O)CO[C@@H]1C[C@@H]2O (racemic) [paclitaxel] | dose-dependent suppression | – |
| Cc1cn([C@H]2C[C@H](N=[N+]=[N-])[C@@H](CO)O2)c(=O)[nH]c1=O [AZT, zidovudine] | – | dose-dependently inhibited |
| CC(C)(C)NC(=O)[C@@H]1CN(Cc2cccnc2)CCN1C[C@@H](O)C[C@@H](Cc1ccccc1)C(=O)N[C@H]1c2ccccc2C[C@H]1O [IDV, indinavir] | – | dose-dependently inhibited |
